# Publication PMC9888480, “Carboranyl-1,8-naphthalimide intercalators induce lysosomal membrane permeabilization and ferroptosis in cancer cell lines” (Journal of Enzyme Inhibition and Medicinal Chemistry, 2023)
# How the values were obtained:
# [1] = test system: ct-DNA; experiment: Melting temperature (Tm) measurements of ct-DNA; assay type: binding, calf; settings: r = [compound]/[ct-DNA] = 0.3, cacodylate buffer pH 7.0; Tm of free ct-DNA 74 °C; error ±0.5 °C
# Experimental: The measurements were carried out by adding aliquots of DMSO stock solution of the tested compounds to the buffer solution (pH 7.0, 20 mM, cacodylate buffer, DMSO content of the final solution = 0.33–0.39%). Tm curves were collected at r = 0.3 (r = [compound]/[ct-DNA]) to assure the dominant binding mode. Thermal melting curves were plotted considering the absorption change at 260 nm as a function of temperature using a GBC Cintra10 UV–VIS spectrometer (Dandenong, Australia) equipped with a GBC Thermocell Peltier Power Supply (Dandenong, Australia) with the use of a 1-cm-path-length cell. The absorbance of the samples was monitored at 260 nm from 35 to 95 °C with a heating rate of 1 °C/min. Tm values are the midpoints or the transition curves determined from the maximum of the first derivative. ΔTm values were calculated by subtracting the Tm of the free nucleic acid from the Tm of the sample. All ΔTm values reported in the study were measured in triplicate. The error in ΔTm was ±0.5 °C.
# [2] = test system: ct-DNA; experiment: Circular dichroism (CD) measurements of ct-DNA; assay type: binding, calf; settings: increasing concentration of conjugate, r = 0.1–0.5, cacodylate buffer pH 7.0
# Experimental: The measurements were performed by adding aliquots of DMSO stock solution of the tested compounds to the buffer solution (pH 7.0, 20 mM, cacodylate buffer, DMSO content of the final solutions = 0.22–1.30%). Changes in the CD spectrum of ct-DNA upon the addition of compound were measured at different molar ratios r = [compound]/[ct-DNA]. CD spectra were recorded on a JASCO J-815 CD spectrometer with a JASCO PFD-425S Peltier thermostated cell holder (JASCO, Tokyo, Japan) by using a square quartz cuvette of path length 0.5 cm (0.5 ml) in the 230–400 nm region. The CD profiles reported were an average of three successive scans with a scan time of 200 nm per minute and an appropriately corrected baseline. Temperature was maintained at 20 °C during the experiment.
# [3] = test system: HepG2; experiment: In vitro cytotoxic activity, MTT assay; assay type: cell-based, human; settings: concentration required to inhibit cell growth by 50%
# Excerpt: (§1) The in vitro cytotoxic activity of the obtained carborane-1,8-naphthalimide conjugates was investigated by examining their cytotoxic effects using the MTT (3–(4,5-dimethylthiazol-2-yl)-2,5-diphenyltetrazolium bromide) dye assay[38]^,[39] against the human cancer cell line HepG2 established from hepatocellular carcinoma (for compounds 12–19 and 30–37) and against human lung fibroblasts (MRC-5) (for compounds 34–37). The IC50 values—the drug concentration (µM) required to inhibit cell growth by 50%—determined for the synthesised compounds are summarised in Table 2.
# (§2) The cytotoxic properties of the synthesised compounds were evaluated using the human hepatocellular carcinoma cell line (HepG2) and human lung fibroblasts (MRC-5). The HepG2 and MRC-5 cell lines were purchased from American Type Culture Collection (ATCC, Manassas, VA, USA). The HepG2 cells were propagated in Eagle’s minimal essential medium (EMEM, ATCC, Manassas, VA, USA), supplemented with 10% inactivated foetal bovine serum (FBS, Life Technologies, Warsaw, Poland) and 100 units/ml penicillin G with […] streptomycin (Life Technologies, Warsaw, Poland). The cells were incubated at 37 °C in a humidified atmosphere containing 5% CO2. Upon reaching 80–90% confluency, the cells were harvested with 0.25% trypsin in 1 mM EDTA (Life Technologies, Warsaw, Poland) and transferred to 96-well microplates at 2 × 10^4 cells/well. After overnight incubation of cells at 37 °C in a humidified atmosphere containing 5% CO2, the culture medium was removed and replaced with a freshly prepared solution of compounds in the culture medium or medium itself as the control group. The stock solutions of each compound were prepared in DMSO at a concentration of 100 mM and were diluted with the growth medium supplemented with 10% FBS to ensure drug dissolution to obtain concentrations ranging from 0.1 to 1000 µM. Cytotoxicity was evaluated using the MTT assay. After incubation with the compounds, the cells were treated with MTT dye solution (5 mg/ml) for 2 h and lysed with a solvent solution containing DMF (45 ml), sodium dodecylsulfate (13.5 g), and distilled water (55 ml). After overnight incubation at 37 °C, optical density at 550 nm, with a reference wavelength of 670 nm, was measured in an ELISA reader (VarioskanLux, Thermo Scientific, Waltham, MA, USA). All determinations were carried out in triplicate. Results were calculated as the percentage of control group viability. The IC50 values of the compounds were calculated in an Excel add-in ED50V10.
# [4] = test system: MRC-5; experiment: In vitro cytotoxic activity, MTT assay; assay type: cell-based, human; settings: concentration required to inhibit cell growth by 50%
# Excerpt: as §1, §2
# [5] = test system: HepG2 cells; experiment: Apoptosis/necrosis assay by flow cytometry (YO-PRO-1/PI); assay type: cell-based, human; settings: HepG2, 24 h, YO-PRO1/PI; for early apoptotic cells: half and total IC50 concentrations tested
# Experimental: Apoptosis/necrosis assay was carried out by double staining of cells with YO-PRO-1 (Thermo Fisher Scientific) and propidium iodide (PI, Sigma-Aldrich) fluorescent dyes. Briefly, HepG2 cells (2 × 10^5) were seeded onto 6-well plates. […] Subsequently, the cells were detached with trypsin (Thermo Fisher Scientific), washed twice with DPBS (1 ml) (Thermo Fisher Scientific), and stained with YO-PRO-1 (0.5 µM) and PI (10 µg/ml) according to the manufacturer’s protocol for 30 min at 37 °C in the dark. Immediately after staining, the cells were analysed with 488 nm excitation using a FACSCalibur flow cytometer (Becton Dickinson), and data were analysed using the FlowJo software (Becton Dickinson).
# [6] = test system: HepG2 cells; experiment: Oxidative stress (ROS) measurement by flow cytometry (H2DCFDA); assay type: cell-based, human; settings: HepG2, 24 h, total IC50 concentration
# Experimental: The HepG2 cells were seeded (2 × 10^5 cells/well) onto 12-well plates and cultured in supplemented EMEM at 37 °C under 5% CO2 saturation until 70–80% confluency was reached. […] The intracellular ROS level was analysed by staining with H2DCFDA (ex/em: ∼492–495/517–527 nm) in accordance with the manufacturer’s protocol (Thermo Fisher Scientific, Waltham, MA, USA), wherein ROS trigger the fluorescence. The cells were separated by trypsin (Corning®) and washed twice with DPBS (1 ml, Capricorn). The pelleted cells were suspended in 0.5 ml of DPBS containing H2DCFDA at the final concentration of 0.5 µM. In order to eliminate dead cells from analysis, propidium iodide (10 µg/ml) was also added to the staining mix. The cells were then incubated at 37 °C for 30 min in the dark and then analysed with excitation at 488 nm using a FACSCalibur flow cytometer (Becton Dickinson, Franklin Lakes, NJ, USA), and the data were analysed using the FlowJo software (Becton Dickinson).
Substance,ΔTm ct-DNA [1],change in the CD spectra of ct-DNA [2],IC50 [3],IC50 [4],early apoptotic cells [5],ROS generation (green fluorescence intensity) [6],necrosis (PI positive cells) [5]
"4-[(6-[(1,2-Dicarba-closo-dodecaborane-1-yl)ethylamino]hexyl)amino]-3-nitro-N-[2-(N-pyrrolidinyl)ethyl]-1,8-naphthalimide [Compound 36]",10.00 °C,disturbed,3630 ± 300 nM,2330 ± 20 nM,12.55%,weakest ROS inductor,
"4-[(6-[(1,2-Dicarba-closo-dodecaborane-1-yl)ethylamino]hexyl)amino]-N-[2-(dimethylamino)ethyl]-3-nitro-1,8-naphthalimide [Compound 34]",11.67 °C,remarkably disturbed,4780 ± 790 nM,2130 ± 230 nM,9.12%,increased approximately twofold,
"4-[(6-[(1,7-Dicarba-closo-dodecaborane-1-yl)ethylamino]hexyl)amino]-3-nitro-N-[2-(N-pyrrolidinyl)ethyl]-1,8-naphthalimide [Compound 37]",13.00 °C,remarkably disturbed,4230 ± 820 nM,2260 ± 50 nM,12.56%,increased approximately twofold,
"4-[(6-[(1,7-Dicarba-closo-dodecaborane-1-yl)ethylamino]hexyl)amino]-N-[2-(dimethylamino)ethyl]-3-nitro-1,8-naphthalimide [Compound 35]",13.00 °C,remarkably disturbed,4320 ± 710 nM,2140 ± 360 nM,6.7%,moderate effect,55.75%
